A short description of assay [1]: HEK293T cell cytotoxicity, dose response, cytotoxicity control, luminescence plate reader, powder samples, set 4 (AID 651863). The settings on record: HEK293. The class given is functional, cell-based.
In assay [2] the test system is Cryptococcus neoformans. In words: Cryptococcus growth inhibition by alamar blue – cell lysis, cherry-picks, replicate tests, mechanism study for C. neoformans antifungal project, dose response (AID 686999). The class given is functional, organism-based.
For assay [3], the system named is Cryptococcus neoformans. The assay is described as follows: PubChem AID 686997. The class given is functional, organism-based.
Assay [4] addresses T1, Botulinum neurotoxin type A (Clostridium botulinum (strain Hall / ATCC 3502 / NCTC 13319 / Type A), UniProt P0DPI1). In words: High-throughput multiplex microsphere dose response for inhibitors of toxin protease, specifically Botulinum neurotoxin light chain A protease, compounds from Powder Set 01. The class given is functional, Clostridium botulinum A str. ATCC 3502. The conditions noted are these: read-out: EC50_MICROM.

Assay [5] has as its target T1, Botulinum neurotoxin type A. The assay is described as follows: Confirmatory FRET assay using full length substrates for Botulinum neurotoxin light chain A protease, with Powder Set01. The class given is functional.
The next assay concerns the target Lethal factor (Bacillus anthracis, UniProt P15917). The assay is described as follows: High-throughput multiplex microsphere dose response for inhibitors of toxin protease, specifically Lethal Factor protease, compounds from Powder Set 01. The class given is functional, Bacillus anthracis str. A2012. The settings on record: read-out: EC50_MICROM.
The target in assay [6] is Botulinum neurotoxin type F (Clostridium botulinum, UniProt P30996). The assay is described as follows: High-throughput multiplex microsphere dose response for inhibitors of toxin protease, specifically Botulinum neurotoxin light chain F protease, compounds from Powder Set 01. The class given is functional, Clostridium botulinum Bf. The conditions noted are these: read-out: EC50_MICROM.

The target of assay [7] is T2, Intestinal-type alkaline phosphatase (Homo sapiens, UniProt P09923). In words: human intestinal alkaline phosphatase activators, dose response, biochemical, luminescence, uHTS hits (AID 463120). The class given is functional.
T2 sequence (P09923 whole entry): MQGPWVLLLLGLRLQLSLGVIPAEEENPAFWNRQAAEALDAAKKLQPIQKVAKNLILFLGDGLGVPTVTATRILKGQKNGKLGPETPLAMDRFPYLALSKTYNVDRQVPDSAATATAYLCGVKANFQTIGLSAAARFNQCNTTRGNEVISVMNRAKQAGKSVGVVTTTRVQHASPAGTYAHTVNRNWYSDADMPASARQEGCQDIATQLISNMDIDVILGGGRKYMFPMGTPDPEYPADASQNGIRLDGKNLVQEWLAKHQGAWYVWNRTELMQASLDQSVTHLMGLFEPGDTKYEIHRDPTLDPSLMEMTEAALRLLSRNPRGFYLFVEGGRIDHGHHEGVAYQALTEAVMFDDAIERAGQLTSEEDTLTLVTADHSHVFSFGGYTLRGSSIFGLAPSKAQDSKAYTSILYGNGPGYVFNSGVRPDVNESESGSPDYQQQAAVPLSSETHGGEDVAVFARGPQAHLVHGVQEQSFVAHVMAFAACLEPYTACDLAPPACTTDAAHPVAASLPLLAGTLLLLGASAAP
The target of assay [8] is Intestinal-type alkaline phosphatase (Mus musculus, UniProt P24822). In words: PubChem AID 488875. The class given is functional.
The target in assay [9] is T2, Intestinal-type alkaline phosphatase. The assay is described as follows: human IAP activators, dose response, biochemical, luminescent, uHTS hits, set 2 (AID 488817).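 Further: potency of activators that raise enzyme activity.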 The class given is functional.
Assay [10] deals with T3, Alkaline phosphatase, tissue-nonspecific isozyme (Homo sapiens, UniProt P05186).
T3 sequence (P05186 whole entry): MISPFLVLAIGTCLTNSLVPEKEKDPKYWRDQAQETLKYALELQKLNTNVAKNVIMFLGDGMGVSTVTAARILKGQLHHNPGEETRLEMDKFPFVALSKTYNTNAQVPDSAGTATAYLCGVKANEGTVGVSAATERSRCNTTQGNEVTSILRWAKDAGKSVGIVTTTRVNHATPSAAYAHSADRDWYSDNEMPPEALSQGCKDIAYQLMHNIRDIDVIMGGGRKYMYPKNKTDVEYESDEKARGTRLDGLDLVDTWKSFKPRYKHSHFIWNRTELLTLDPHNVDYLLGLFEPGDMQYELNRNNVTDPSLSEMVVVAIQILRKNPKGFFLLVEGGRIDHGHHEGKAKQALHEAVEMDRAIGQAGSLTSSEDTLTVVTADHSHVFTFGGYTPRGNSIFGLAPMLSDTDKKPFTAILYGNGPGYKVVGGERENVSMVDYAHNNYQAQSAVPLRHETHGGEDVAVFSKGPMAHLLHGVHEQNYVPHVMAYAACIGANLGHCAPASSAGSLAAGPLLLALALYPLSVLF
The assay is described as follows: TNAP enzyme activators, dose response, selectivity assay for human IAP activator project, biochemical, TNAP isozyme, human IAP uHTS hits (AID 488886).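 Further: potency of compounds raising TNAP activity as a selectivity check on IAP activators.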 The class given is functional.

A further assay has as its target Albumin (Bos taurus, UniProt P02769). In words: Counterscreen for inhibitors of T-cell receptor (TCR)-CD3 interaction: Fluorescence-based biochemical high throughput dose response assay to identify inhibitors of T-cell receptor (TCR)-CD3 interaction using a TAMRA-labeled BSA probe. The class given is functional.
The target of the next assay is Keap1/Nrf2 (Homo sapiens, UniProt Q14145). In words: Keap1-Nrf2 protein-protein interaction inhibitors, dose response, biochemical, fluorescence polarization, cherry-picked samples (AID 588683).
Assay [11] is described as follows: Keap1 Kelch-Nrf2 peptide binding inhibitors, dose response, biochemical, fluorescence polarization, dry powder, set 3 (AID 651806).
The target in assay [12] is Protein disulfide-isomerase (Homo sapiens, UniProt P07237). The assay is described as follows: PDI inhibitors, insulin turbidity readout, confirmation, biochemical, dry powder samples, set 2 (AID 652146).
The next assay addresses Galanin receptor type 3 (Homo sapiens, UniProt O60755). In words: Fluorescence-based cell-based primary high throughput dose response assay to identify antagonists of the Galanin Receptor 3 (GalR3). The class given is functional.
A short description of another assay: cells. The settings on record: HEK-CNG. The class given is functional, cell-based.
The nature of assay [13]: T. cruzi growth inhibition in host cells, dose response, cell-based, plate reader, dry powder, set 2 (AID 652275). The class given is functional.
Assay [14] can be described thus: BHK-21 cell cytotoxicity, cytotoxicity control for flavivirus guanylyltransferase probe project, secondary screen (AID 624078). The class given is functional.
Assay [15] deals with T4, Fatty acid synthase (Homo sapiens, UniProt P49327). The assay is described as follows: FAS thioesterase domain inhibitors, SAR follow-up, biochemical, endpoint fluorescence intensity, powder samples (AID 652164). The class given is functional.
T4 sequence (P49327 whole entry, the tested form may be a part): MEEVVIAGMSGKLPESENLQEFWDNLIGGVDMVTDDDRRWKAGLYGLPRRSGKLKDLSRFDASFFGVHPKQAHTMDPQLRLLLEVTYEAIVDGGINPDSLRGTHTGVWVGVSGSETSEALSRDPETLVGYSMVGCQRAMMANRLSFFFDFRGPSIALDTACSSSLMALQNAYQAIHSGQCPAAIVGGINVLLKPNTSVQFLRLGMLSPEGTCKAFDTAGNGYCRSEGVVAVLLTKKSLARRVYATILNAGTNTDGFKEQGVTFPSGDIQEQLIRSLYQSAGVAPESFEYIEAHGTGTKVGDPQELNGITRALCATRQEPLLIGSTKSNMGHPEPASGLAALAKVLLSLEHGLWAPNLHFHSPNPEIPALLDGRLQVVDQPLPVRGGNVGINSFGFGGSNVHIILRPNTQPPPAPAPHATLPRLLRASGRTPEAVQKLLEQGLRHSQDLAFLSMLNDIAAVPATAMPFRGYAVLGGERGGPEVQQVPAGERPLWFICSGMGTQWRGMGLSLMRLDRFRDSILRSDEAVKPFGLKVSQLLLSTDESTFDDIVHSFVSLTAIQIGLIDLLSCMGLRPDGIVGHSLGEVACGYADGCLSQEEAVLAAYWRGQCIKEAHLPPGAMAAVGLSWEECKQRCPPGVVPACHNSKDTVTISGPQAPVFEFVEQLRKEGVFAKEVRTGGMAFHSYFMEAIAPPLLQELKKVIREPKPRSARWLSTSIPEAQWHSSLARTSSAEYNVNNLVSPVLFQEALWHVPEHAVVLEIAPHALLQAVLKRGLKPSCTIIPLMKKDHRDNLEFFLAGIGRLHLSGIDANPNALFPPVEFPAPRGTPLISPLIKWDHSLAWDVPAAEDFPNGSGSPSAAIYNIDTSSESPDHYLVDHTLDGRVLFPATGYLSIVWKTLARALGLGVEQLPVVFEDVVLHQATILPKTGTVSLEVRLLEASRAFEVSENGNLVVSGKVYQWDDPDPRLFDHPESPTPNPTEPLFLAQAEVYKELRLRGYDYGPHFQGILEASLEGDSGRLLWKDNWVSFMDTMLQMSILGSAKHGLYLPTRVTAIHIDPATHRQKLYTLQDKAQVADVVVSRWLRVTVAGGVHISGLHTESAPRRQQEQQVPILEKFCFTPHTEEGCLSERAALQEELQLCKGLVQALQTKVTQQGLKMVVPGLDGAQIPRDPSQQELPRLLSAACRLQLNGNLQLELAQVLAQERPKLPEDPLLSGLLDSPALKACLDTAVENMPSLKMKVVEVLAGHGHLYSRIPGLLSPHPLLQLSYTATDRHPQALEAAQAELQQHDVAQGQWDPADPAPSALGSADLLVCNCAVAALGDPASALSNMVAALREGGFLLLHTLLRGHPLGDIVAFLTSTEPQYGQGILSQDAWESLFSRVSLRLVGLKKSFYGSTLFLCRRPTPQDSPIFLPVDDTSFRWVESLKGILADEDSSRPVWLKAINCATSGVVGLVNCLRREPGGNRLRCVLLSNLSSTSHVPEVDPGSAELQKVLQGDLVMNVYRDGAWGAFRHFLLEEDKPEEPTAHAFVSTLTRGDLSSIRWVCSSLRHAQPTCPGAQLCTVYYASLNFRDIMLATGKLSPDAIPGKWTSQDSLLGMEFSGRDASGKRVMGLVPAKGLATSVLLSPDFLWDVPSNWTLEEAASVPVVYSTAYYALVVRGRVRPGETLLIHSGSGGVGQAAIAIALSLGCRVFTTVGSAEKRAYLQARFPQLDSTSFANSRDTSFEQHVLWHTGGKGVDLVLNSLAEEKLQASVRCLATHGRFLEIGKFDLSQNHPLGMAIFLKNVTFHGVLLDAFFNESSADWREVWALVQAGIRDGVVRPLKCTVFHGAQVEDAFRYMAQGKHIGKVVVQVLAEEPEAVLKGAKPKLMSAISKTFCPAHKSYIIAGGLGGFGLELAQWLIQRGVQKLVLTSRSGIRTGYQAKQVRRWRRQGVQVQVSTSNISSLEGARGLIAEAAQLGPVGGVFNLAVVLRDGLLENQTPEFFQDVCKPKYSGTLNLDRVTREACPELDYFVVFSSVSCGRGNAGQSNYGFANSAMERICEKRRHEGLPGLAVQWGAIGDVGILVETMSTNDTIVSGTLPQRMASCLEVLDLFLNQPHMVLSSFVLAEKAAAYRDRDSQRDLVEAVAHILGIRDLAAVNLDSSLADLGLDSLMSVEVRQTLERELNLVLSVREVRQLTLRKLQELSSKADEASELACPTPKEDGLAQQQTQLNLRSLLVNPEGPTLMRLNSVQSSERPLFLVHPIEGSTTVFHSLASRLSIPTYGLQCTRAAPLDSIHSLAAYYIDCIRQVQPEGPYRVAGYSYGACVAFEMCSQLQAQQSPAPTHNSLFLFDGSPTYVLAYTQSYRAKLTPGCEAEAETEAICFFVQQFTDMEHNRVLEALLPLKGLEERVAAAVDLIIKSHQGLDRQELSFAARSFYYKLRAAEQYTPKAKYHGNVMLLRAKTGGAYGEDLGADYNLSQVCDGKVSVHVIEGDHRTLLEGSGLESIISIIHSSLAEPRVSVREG
Assay [16] addresses T4, Fatty acid synthase. The assay is described as follows: FAS thioesterase domain inhibitors, dose response, biochemical, kinetic fluorescence intensity (AID 624326).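 Further: rate of fluorescence rise from hydrolysis of a fluorogenic O-methyl fluorescein ester substrate.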 The class given is functional.
Assay [17] addresses T4, Fatty acid synthase. The assay is described as follows: FAS thioesterase domain inhibitors, dose response, biochemical, endpoint fluorescence intensity, uHTS hits (AID 624327).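 Further: fluorescence from hydrolysis of an O-methyl fluorescein acyl ester substrate by the enzyme.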 The class given is functional.

Structures are written as SMILES. Activity calls are given as the source filed them. Unless noted, the calls are words filed in the database; no cut-off is given here.

One may read the AC50 as the concentration giving half of the maximal activity seen. A word on the IC50: it is the concentration that inhibits the measured activity by half. In general, CC50 refers to the concentration at which the toxic effect on the cells reaches its halfway point.

T1 sequence (P0DPI1 2-448 limits assumed): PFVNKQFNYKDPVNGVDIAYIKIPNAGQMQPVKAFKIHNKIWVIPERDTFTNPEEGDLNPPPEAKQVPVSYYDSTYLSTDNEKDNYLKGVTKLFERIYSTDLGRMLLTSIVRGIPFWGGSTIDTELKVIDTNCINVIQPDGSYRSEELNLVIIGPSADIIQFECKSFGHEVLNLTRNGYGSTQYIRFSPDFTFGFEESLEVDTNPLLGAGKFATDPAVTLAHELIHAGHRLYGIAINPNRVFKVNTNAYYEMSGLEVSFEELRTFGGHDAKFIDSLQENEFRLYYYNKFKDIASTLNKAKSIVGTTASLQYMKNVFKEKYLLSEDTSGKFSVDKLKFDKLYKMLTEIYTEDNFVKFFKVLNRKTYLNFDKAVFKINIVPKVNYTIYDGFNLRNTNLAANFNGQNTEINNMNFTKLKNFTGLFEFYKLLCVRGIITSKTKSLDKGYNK
Sequence of Lethal factor (P15917 whole entry): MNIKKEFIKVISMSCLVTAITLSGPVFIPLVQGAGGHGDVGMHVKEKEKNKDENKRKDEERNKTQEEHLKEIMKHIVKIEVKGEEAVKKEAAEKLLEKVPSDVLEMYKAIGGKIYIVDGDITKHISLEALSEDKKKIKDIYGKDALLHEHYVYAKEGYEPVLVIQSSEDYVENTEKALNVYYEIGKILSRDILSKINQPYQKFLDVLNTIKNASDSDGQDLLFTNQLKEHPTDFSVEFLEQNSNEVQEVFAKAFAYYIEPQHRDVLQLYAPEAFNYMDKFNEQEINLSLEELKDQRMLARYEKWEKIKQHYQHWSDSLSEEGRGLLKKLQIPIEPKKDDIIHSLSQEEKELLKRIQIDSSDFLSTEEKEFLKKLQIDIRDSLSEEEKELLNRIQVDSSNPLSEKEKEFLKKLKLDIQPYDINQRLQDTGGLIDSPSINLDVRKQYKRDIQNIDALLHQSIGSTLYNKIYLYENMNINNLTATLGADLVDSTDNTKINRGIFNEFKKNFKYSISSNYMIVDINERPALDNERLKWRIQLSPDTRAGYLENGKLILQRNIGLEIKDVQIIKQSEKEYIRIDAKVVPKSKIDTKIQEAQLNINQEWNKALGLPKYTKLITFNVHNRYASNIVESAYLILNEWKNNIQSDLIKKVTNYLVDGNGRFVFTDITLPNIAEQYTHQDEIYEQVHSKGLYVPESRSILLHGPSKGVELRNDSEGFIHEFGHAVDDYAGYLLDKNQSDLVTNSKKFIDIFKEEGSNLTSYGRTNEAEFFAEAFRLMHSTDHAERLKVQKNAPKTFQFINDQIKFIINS
Sequence of Albumin (P02769 whole entry): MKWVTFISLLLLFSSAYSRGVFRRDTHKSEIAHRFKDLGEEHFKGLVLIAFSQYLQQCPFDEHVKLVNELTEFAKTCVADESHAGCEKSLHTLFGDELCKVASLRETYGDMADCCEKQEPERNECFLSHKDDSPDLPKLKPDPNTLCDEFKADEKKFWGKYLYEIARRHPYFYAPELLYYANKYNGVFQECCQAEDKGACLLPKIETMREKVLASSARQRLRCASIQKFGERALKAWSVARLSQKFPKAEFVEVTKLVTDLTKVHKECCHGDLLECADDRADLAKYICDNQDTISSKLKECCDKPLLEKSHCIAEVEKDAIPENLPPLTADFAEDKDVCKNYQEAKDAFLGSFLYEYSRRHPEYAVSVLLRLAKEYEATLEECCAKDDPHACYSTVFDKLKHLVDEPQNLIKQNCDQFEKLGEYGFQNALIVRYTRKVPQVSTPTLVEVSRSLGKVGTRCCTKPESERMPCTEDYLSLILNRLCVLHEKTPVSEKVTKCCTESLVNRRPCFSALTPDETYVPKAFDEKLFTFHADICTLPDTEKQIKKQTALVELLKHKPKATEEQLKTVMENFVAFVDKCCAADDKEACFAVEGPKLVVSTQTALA

`CC(=O)Nc1cc(NS(=O)(=O)c2c(C)cc(C)cc2C)c2ccccc2c1O`: the AC50 in assay [1] was 32.3 µM (active).

Consider `COC(=O)C1=C(C)N(Cc2ccc(Cl)cc2)C(=S)NC1c1ccc(Br)cc1` (configuration not stated), for which the figures for the AC50 in the assay with Cryptococcus neoformans [2] and with Cryptococcus neoformans [3] were 29.1 µM (active) and 27.3 µM (active), respectively.

Regarding `O=C(Nc1ccc2nc(-c3cccs3)c(-c3cccs3)nc2c1)N1CCCCC1`, the EC50 was 6.1 µM (active) in [4], 6.9 µM (active) in assay [5], 6.7 µM (active) on Lethal factor and 4.6 µM (active) in [6].

As to `Cc1ccc(NC(=O)NNC(=O)c2cc3ccccc3cc2O)cc1`, the EC50 in assay [7] was 9.83 µM (active); in [8], > 100 µM (inactive); in assay [9], 14.9 µM (active); in assay [10] it was 13 µM (active). Moreover, at Albumin, the IC50 is > 94.1 µM (inactive).

With `Cc1ccc(S(=O)(=O)Nc2cc(C(C(=O)OC(C)C)C(=O)C(F)(F)F)c(O)c3ccccc23)c(C)c1` (configuration not stated), the AC50 is 2.67 µM (active) at Keap1/Nrf2 and 74.9 µM (active) in assay [11].

Turning to `CCNC(=O)C1(CCOc2ccccc2)CCN(Cc2ccc(O)c(Cl)c2)CC1`, the AC50 in [12] was > 30 µM (inactive).

`CC(=O)c1cn(CC(=O)NCCc2c[nH]c3ccccc23)c2ccccc12`: the concentration for half-maximal inhibition (IC50) at Galanin receptor type 3 is 2.7 µM (active). Further, the EC50 in the assay “cells” was > 29.9 µM (inactive).

`CC(C)N1C[C@H](C)[C@@H](CN(C)Cc2ccc(F)cc2)Oc2c(C(=O)Nc3ccncc3)cccc2C1=O`: in assay [13], the AC50 is 0.313 µM (active).

As to `Cc1cc(F)ccc1S(=O)(=O)Nc1cc(SCC(=O)O)c(O)c2ccccc12`, the CC50 in assay [14] was 10.7 µM (active).

As to `CC(C)C(=O)Nc1nc(-c2ccc(S(=O)(=O)N3CCOCC3)cc2)cs1`, the values for the IC50 at Fatty acid synthase [15], on Fatty acid synthase [16] and at Fatty acid synthase [17] were 0.874 µM (active), 0.53 µM (active) and 0.614 µM (active), respectively.

For the origin of these results see ChEMBL document CHEMBL1201862, “PubChem BioAssay data set” (2004).
